What was measured:
Type in all cases: in vivo, mouse
[1] = test system: doxorubicin-induced senescent cells in p16-3MR mice; assay: Removal of doxorubicin-induced senescent cells in p16-3MR transgenic mice
Description: The capability of Nutlin-3a to remove senescent cells in vivo was determined in transgenic p16-3MR mice (see, e.g., International Application Publication No. WO2013/090645). The transgenic mouse comprises a p16^Ink4a promoter operatively linked to a trimodal fusion protein for detecting senescent cells and for selective clearance of senescent cells in these transgenic mice, which is illustrated in FIG. 7. […] 3MR (tri-modality reporter) is a fusion protein containing functional domains of a synthetic Renilla luciferase (LUC), monomeric red fluorescence protein (mRFP), and truncated herpes simplex virus (HSV)-1 thymidine kinase (tTK), which allows killing by ganciclovir (GCV) (see, e.g., Ray et al., Cancer Res. 64:1323-30 (2004)). The 3MR cDNA was inserted in frame with p16 in exon 2, creating a fusion protein containing the first 62 amino acids of p16, but not a full-length wild-type p16 protein. […] The p16^Ink4a gene promoter (approximately 100 kilobase pairs) was introduced upstream of a nucleotide sequence encoding a trimodal reporter fusion protein. Alternatively, a truncated p16^Ink4a promoter may be used (see, e.g., Baker et al., Nature, supra; International Application Publication No. WO2012/177927; Wang et al., supra). Thus, the expression of 3MR is driven by the p16^Ink4a promoter in senescent cells only. The detectable markers, LUC and mRFP permitted detection of senescent cells by bioluminescence and fluorescence, respectively. […] Transgenic founder animals, which have a C57B16 background, were established and bred using known procedures for introducing transgenes into animals (see, e.g., Baker et al., Nature 479:232-36 (2011)).
Female C57/BL6 p16-3MR mice were randomized into doxorubicin+Nutlin-3a treated or doxorubicin only treated groups (see FIG. 6). Senescence was induced by intraperitoneal administration of doxorubicin at 10 mg/kg to the mice ten days prior to administration of Nutlin-3a (Day −10). Nutlin-3a (25 mg/kg) was administered intraperitoneally daily from day 10 to day 24 post-doxorubicin treatment (Group=9 mice). Control mice (doxorubicin treated) were injected with equal volumes of PBS (Group=3 mice). Luminescence imaging (Xenogen Imaging system) was performed at Day 0 (i.e., 10 days post-doxorubicin treatment) as a baseline for each mouse (100% intensity).
Luminescence imaging of the mice was performed on day 7, 14, 21, 28, and 35 following the initiation of Nutlin-3a treatment. Reduction of luminescence (L) was calculated as: L=(Imaging post-Nutlin-3a treatment)/(Baseline Imaging)[…]. If L is greater than or equal to 100%, the number of senescent cells was not reduced. If L is less than 100%, then the number of senescent cells was reduced. Every mouse was calculated independently, and background was subtracted from each sample.
Experiments were performed to determine the effect of Nutlin-3a treatment on expression of genes associated with senescence. Groups of female C57/BL6 p16-3MR were treated as described above. Three weeks after the end of Nutlin-3a treatment (day 35), the doxorubicin treated mice (control) (N=3) and doxorubicin+Nutlin-3a-treated mice (N=6) were sacrificed. […]
RNA was analyzed for mRNA levels of endogenous senescence markers (p21, p16^INK4a (p16), and p53) and SASP factors (mmp-3 and IL-6) relative to actin mRNA (control for cDNA quantity) using the Roche Universal Probe Library for real-time PCR assay. […]

[2] = test system: p16-3MR mice treated with paclitaxel; assay: Voluntary exercise (wheel counts) after paclitaxel in p16-3MR mice; details: ABT-263 100 mg/kg i.p. daily 7 days; ganciclovir 25 mg/kg i.p. daily 3 days
Description: The capability of a senolytic agent, such as ABT-263, to reduce chemotherapy related side effects, such as fatigue, was examined in p16-3MR transgenic mice. In addition to doxorubicin, paclitaxel also induces cellular senescence when administered to animals. See Example 2 for a description of the p16-3MR transgenic mouse model.
In this experiment, paclitaxel was administered to groups of p16-3mr mice (n=4) three times, every two days. Two days after the third dose of paclitaxel, ganciclovir was administered daily for three days (days 1, 2, and 3) intraperitoneally at 25 mg/kg. ABT-263 (100 mg/kg) was administered intraperitoneally daily for seven days after paclitaxel administration. Two days after the last dose of ABT-263, all groups of animals were housed in metabolic cages (promethion, sable systems international, Las Vegas, NV) to monitor voluntary exercise as determined by wheel counts. Data were collected and analyzed two days later. Clearance of senescent cells by ABT-263 and ganciclovir restored approximately 70% of wheel count reduction caused by chemotherapy treatment.

[3] = test system: p16-3MR mice fed a high fat diet; assay: High fat feeding-induced senescence in p16-3MR mice, SA-β-Gal staining of adipose tissue; details: 25 mg/kg daily for five days; p=<0.004
Description: Groups of p16-3MR mice (n=6) were fed a high fat diet (60% fat) for four months mice or a regular chow diet. The presence of senescence cells was determined by measuring luminescence p16 positive cells). […] Animals were then treated with ganciclovir or vehicle to determine if removal of senescent cells reduced the presence of senescent cells in adipose tissue. Groups of animals were treated with ganciclovir or vehicle. Ganciclovir (25 mg/kg) was administered daily for five consecutive days. The presence of senescent cells in perirenal, epididymal, or subcutaneous inguinal adipose tissue was detected by SA-β-Gal staining. Data were analyzed by ANOVA.

| SMILES | Luminescence associated with doxorubicin-induced senescence (% of baseline) ([1]; 25 mg/kg i.p. daily day 10 to 24 post-doxorubicin) | Decrease in luminescence ([1]; 25 mg/kg i.p. daily, at day 14, day 28 and day 35) | γH2AX positive cells (DNA damage) in lung sections ([1]; day 35, vs doxorubicin alone) | mRNA of SASP factors (mmp-3, IL-6) and senescence markers (p21, p16, p53) ([1]; skin and fat, day 35, vs doxorubicin alone) | Senescence-associated β-gal intensity in fat biopsies ([1]; three weeks after treatment, vs doxorubicin alone) | Restoration of wheel count reduction caused by chemotherapy [2] | Presence of senescent cells in epididymal fat (SA-β-Gal staining) [3] |
| --- | --- | --- | --- | --- | --- | --- | --- |
| COc1ccc(C2=N[C@@H](c3ccc(Cl)cc3)[C@@H](c3ccc(Cl)cc3)N2C(=O)N2CCNC(=O)C2)c(OC(C)C)c1 [Nutlin-3a] | reduced luminescence | statistically significant decrease | reduced the number of cells with DNA damage | reduced expression | reduced senescence-associated β-gal intensity |  |  |
| Nc1nc(O)c2ncn(COC(CO)CO)c2n1 [ganciclovir] |  |  |  |  |  | approximately 70% | significant reduction |
